Source: ChEMBL document CHEMBL1142811, “Design and syntheses of melanocortin subtype-4 receptor agonists. Part 2: discovery of the dihydropyridazinone motif” (Bioorg Med Chem Lett, 2005)

Experiments:
Melanocortin receptor 4 [1] = target: T1, Melanocortin receptor 4 (Homo sapiens, UniProt P32245); assay: Maximum percentage of cAMP accumulation compared to alpha-MSH at human melanocortin 4 receptor at 10 uM; format: functional
Melanocortin receptor 4 [2] = target: T1, Melanocortin receptor 4; assay: Inhibition of [125I]-NDP- alpha-MSH binding to human melanocortin 4 receptor expressed in CHO cells; format: cell-based
Melanocortin receptor 4 [3] = target: T1, Melanocortin receptor 4; assay: Effective concentration at human melanocortin 4 receptor in cAMP release assay; format: functional
Melanocortin receptor 4 [4] = target: T1, Melanocortin receptor 4; assay: Maximum percentage of cAMP accumulation relative to alpha-MSH at human melanocortin 4 receptor at 10 uM; format: functional

T1 sequence (P32245 whole entry): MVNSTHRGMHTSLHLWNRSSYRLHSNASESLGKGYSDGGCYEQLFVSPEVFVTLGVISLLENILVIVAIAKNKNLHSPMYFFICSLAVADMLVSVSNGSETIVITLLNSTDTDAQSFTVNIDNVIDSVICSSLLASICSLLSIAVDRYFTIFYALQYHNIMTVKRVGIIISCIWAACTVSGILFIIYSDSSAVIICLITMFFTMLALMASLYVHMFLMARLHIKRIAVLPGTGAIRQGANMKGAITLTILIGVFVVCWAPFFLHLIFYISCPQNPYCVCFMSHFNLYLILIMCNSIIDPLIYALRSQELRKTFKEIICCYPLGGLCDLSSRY

| Structure (SMILES) | Max (Melanocortin receptor 4 [1]) [%] | IC50 (Melanocortin receptor 4 [2]) [µM] | EC50 (Melanocortin receptor 4 [3]) [µM] | Max (Melanocortin receptor 4 [4]) [%] |
| --- | --- | --- | --- | --- |
| COc1ccc(N2N=C(Sc3ccc(Cl)cc3)CC(CC[C@@H](C)NC(=O)[C@@H]3CNCC[C@H]3c3ccc(F)cc3)C2=O)cc1 (stereo in doubt; 60) [listing 1 of 2 here] | 20 | – | – | – |
| COc1ccc(-n2nc(Sc3ccc(Cl)cc3)cc(CC[C@@H](C)NC(=O)[C@H]3CNCC[C@@H]3c3cccc(F)c3)c2=O)cc1 | 29 | 0.49 | – | – |
| COc1ccc(N2N=C(Sc3ccc(Cl)cc3)CC(CC[C@@H](C)NC(=O)[C@@H]3CNCC[C@H]3c3ccc(F)cc3)C2=O)cc1 (stereo in doubt; 61) [listing 1 of 2 here] | – | 0.69 | 4 | – |
| COc1ccc(-n2nc(Sc3ccc(Cl)cc3)cc(CC[C@@H](C)NC[C@@H]3CNCC[C@H]3c3ccc(F)cc3)c2=O)cc1 | 9 | 0.29 | – | – |
| COc1ccc(-n2nc(Sc3ccc(Cl)cc3)cc(CC[C@@H](C)NC(=O)[C@H]3CCNC[C@@H]3c3ccc(C(F)(F)F)cc3)c2=O)cc1 | – | 0.2 | 0.71 | 75 |
| COc1ccc(N2N=C(Sc3ccc(Cl)cc3)CC(CC[C@@H](C)NC(=O)[C@@H]3CCNC[C@H]3c3ccc(F)cc3)C2=O)cc1 (stereo in doubt; 65) [listing 1 of 2 here] | – | 0.28 | 1.4 | – |
| COc1ccc(-n2nc(Sc3ccc(Cl)cc3)cc(CC[C@@H](C)NC(=O)[C@H]3CCNC[C@@H]3Cc3ccc(F)cc3)c2=O)cc1 | 62 | 0.39 | 0.63 | – |
| COc1ccc(-n2nc(Sc3ccc(Cl)cc3)cc(CC[C@@H](C)NC(=O)[C@H]3CNC[C@@H]3c3ccccc3F)c2=O)cc1 | – | 0.16 | 0.71 | 82 |
| COc1ccc(-n2nc(Sc3ccc(Cl)cc3)cc(CC[C@@H](C)NC(=O)[C@H]3CCNC[C@@H]3Cc3ccccc3)c2=O)cc1 | 36 | 0.75 | – | – |
| COc1ccc(N2N=C(Sc3ccc(Cl)cc3)CC(CC[C@@H](C)NC(=O)[C@@H]3CNCC[C@H]3c3ccc(F)cc3)C2=O)cc1 (stereo in doubt; 60) [listing 2 of 2 here] | – | 0.56 | – | – |
| COc1ccc(N2N=C(Sc3ccc(Cl)cc3)CC(CC[C@@H](C)NC(=O)C3CNC[C@H]3c3ccc(F)cc3)C2=O)cc1 (single isomer, unassigned; 69) [listing 1 of 2 here] | – | 0.43 | 0.74 | – |
| COc1ccc(-n2nc(Sc3ccc(Cl)cc3)cc(CC[C@H](C)NC(=O)[C@H]3CNCCN3c3ccc(F)cc3)c2=O)cc1 | 9 | 1.1 | – | – |
| COc1ccc(-n2nc(Sc3ccc(Cl)cc3)cc(CC[C@@H](C)NC(=O)[C@H]3CCNC[C@@H]3c3ccccc3)c2=O)cc1 | – | – | – | 85 |
| COc1ccc(-n2nc(Sc3ccc(Cl)cc3)cc(CC[C@H](C)NC(=O)[C@@H]3CNCCN3c3ccc(F)cc3)c2=O)cc1 | 38 | 1 | – | – |
| COc1ccc(N2N=C(Sc3ccc(Cl)cc3)CC(CC[C@@H](C)NC(=O)C3CNC[C@H]3c3ccc(F)cc3)C2=O)cc1 (single isomer, unassigned; 68) [listing 1 of 2 here] | – | 0.78 | 4 | – |
| COc1ccc(N2N=C(Sc3ccc(Cl)cc3)CC(CC[C@@H](C)NC(=O)[C@@H]3CNCC[C@H]3c3ccc(F)cc3)C2=O)cc1 (stereo in doubt; 61) [listing 2 of 2 here] | – | – | – | 32 |
| COc1ccc(-n2nc(Sc3ccc(Cl)cc3)cc(CC[C@@H](C)NC(=O)[C@H]3CNCC[C@@H]3c3ccccc3)c2=O)cc1 | – | – | – | 77 |
| COc1ccc(N2N=C(Sc3ccc(Cl)cc3)CC(CC[C@@H](C)NC(=O)[C@@H]3CCNC[C@H]3c3ccc(F)cc3)C2=O)cc1 (stereo in doubt; 64) [listing 1 of 2 here] | – | – | – | 16 |
| COc1ccc(N2N=C(Sc3ccc(Cl)cc3)CC(CC[C@@H](C)NC(=O)[C@H]3CCNC[C@@H]3c3ccc(F)cc3)C2=O)cc1 (stereo in doubt; 62) [listing 1 of 2 here] | – | – | – | 100 |
| COc1ccc(-n2nc(Sc3ccc(Cl)cc3)cc(CC[C@@H](C)NC(=O)[C@H]3CNCCN3c3ccc(F)cc3)c2=O)cc1 | 6 | 0.95 | – | – |
| COc1ccc(-n2nc(Sc3ccc(Cl)cc3)cc(CC[C@@H](C)NC(=O)[C@H]3CNCC[C@@H]3c3ccsc3)c2=O)cc1 | 82 | 0.13 | 0.49 | – |
| COc1ccc(N2N=C(Sc3ccc(Cl)cc3)CC(CC[C@@H](C)NC(=O)[C@@H]3CCNC[C@H]3c3ccc(F)cc3)C2=O)cc1 (stereo in doubt; 64) [listing 2 of 2 here] | – | 1.3 | 2 | – |
| COc1ccc(N2N=C(Sc3ccc(Cl)cc3)CC(CC[C@@H](C)NC(=O)[C@H]3CCNC[C@@H]3c3ccc(F)cc3)C2=O)cc1 (stereo in doubt; 62) [listing 2 of 2 here] | – | 0.54 | 0.48 | – |
| COc1ccc(N2N=C(Sc3ccc(Cl)cc3)CC(CC[C@@H](C)NC(=O)[C@H]3CNCC[C@@H]3c3ccc(F)cc3)C2=O)cc1 (stereo in doubt; 25) [listing 2 of 2 here] | – | – | – | 72 |
| COc1ccc(N2N=C(Sc3ccc(Cl)cc3)CC(CC[C@@H](C)NC(=O)[C@@H]3CCNC[C@H]3c3ccc(F)cc3)C2=O)cc1 (stereo in doubt; 65) [listing 2 of 2 here] | – | – | – | 33 |
| COc1ccc(N2N=C(Sc3ccc(Cl)cc3)CC(CC[C@@H](C)NC(=O)C3CNC[C@H]3c3ccc(F)cc3)C2=O)cc1 (single isomer, unassigned; 69) [listing 2 of 2 here] | – | – | – | 48 |
| COc1ccc(N2N=C(Sc3ccc(Cl)cc3)CC(CC[C@@H](C)NC(=O)C3CNC[C@@H]3c3ccc(F)cc3)C2=O)cc1 (single isomer, unassigned; 66) [listing 2 of 2 here] | – | – | – | 90 |
| COc1ccc(N2N=C(Sc3ccc(Cl)cc3)CC(CC[C@@H](C)NC(=O)C3CNC[C@H]3c3ccc(F)cc3)C2=O)cc1 (single isomer, unassigned; 68) [listing 2 of 2 here] | – | – | – | 26 |

The remaining molecules from weak to strong by IC50 (Melanocortin receptor 4 [2]), led by results:

| Max (Melanocortin receptor 4 [1]) [%] | IC50 (Melanocortin receptor 4 [2]) [µM] | EC50 (Melanocortin receptor 4 [3]) [µM] | Max (Melanocortin receptor 4 [4]) [%] | Structure (SMILES) |
| --- | --- | --- | --- | --- |
| 40 | 0.1 | – | – | COc1ccc(-n2nc(Sc3ccc(Cl)cc3)cc(CC[C@@H](C)NC(=O)[C@H]3CNCC[C@@H]3c3cccc(C(F)(F)F)c3)c2=O)cc1 |
| – | 0.1 | 0.55 | 75 | COc1ccc(-n2nc(Sc3ccc(Cl)cc3)cc(CC[C@@H](C)NC(=O)[C@H]3CCNC[C@@H]3c3ccccc3F)c2=O)cc1 |
| – | 0.098 | 0.4 | 103 | COc1ccc(-n2nc(Sc3ccc(Cl)cc3)cc(CC[C@@H](C)NC(=O)[C@H]3CNC[C@@H]3c3ccccc3)c2=O)cc1 |
| – | 0.093 | 0.41 | 94 | COc1ccc(-n2nc(Sc3ccc(Cl)cc3)cc(CC[C@@H](C)N(C)C(=O)C3CNCCC3c3ccc(F)cc3)c2=O)cc1 (some centres undefined) |
| 22 | 0.089 | – | – | COc1ccc(-n2nc(Sc3ccc(Cl)cc3)cc(CC[C@@H](C)NC(=O)[C@H]3CNCC[C@@H]3c3cccc4ccccc34)c2=O)cc1 |
| – | 0.06 | 0.2 | 81 | COc1ccc(-n2nc(Sc3ccc(Cl)cc3)cc(CC[C@@H](C)NC(=O)[C@H]3CNC[C@@H]3c3ccc(F)cc3F)c2=O)cc1 |
| – | 0.058 | 0.15 | 101 | COc1ccc(-n2nc(Sc3ccc(Cl)cc3)cc(CC[C@@H](C)NC(=O)[C@H]3CCNC[C@@H]3c3ccc(Cl)cc3)c2=O)cc1 |
| – | 0.047 | 1.2 | – | COc1ccc(N2N=C(Sc3ccc(Cl)cc3)CC(CC[C@@H](C)NC(=O)C3CNC[C@@H]3c3ccc(F)cc3)C2=O)cc1 (single isomer, unassigned; 66) [listing 1 of 2 here] |
| – | 0.045 | 0.12 | 81 | COc1ccc(-n2nc(Sc3ccc(Cl)cc3)cc(CC[C@@H](C)NC(=O)[C@H]3CCNC[C@@H]3c3ccc(C#N)cc3)c2=O)cc1 |
| – | 0.045 | 0.23 | 70 | COc1ccc(-n2nc(Sc3ccc(Cl)cc3)cc(CC[C@@H](C)NC(=O)[C@H]3CNC[C@@H]3c3ccc(Cl)cc3)c2=O)cc1 |
| – | 0.043 | 0.68 | 37 | COc1ccc(-n2nc(Sc3ccc(Cl)cc3)cc(CC[C@@H](C)NC(=O)[C@H]3CNCC[C@@H]3c3cccc(Cl)c3)c2=O)cc1 |
| – | 0.036 | 2.4 | 30 | COc1ccc(-n2nc(Sc3ccc(Cl)cc3)cc(CC[C@@H](C)NC(=O)[C@H]3CCNC[C@@H]3c3ccc(Cl)cc3Cl)c2=O)cc1 |
| – | 0.028 | 1.1 | 75 | COc1ccc(-n2nc(Sc3ccc(Cl)cc3)cc(CC[C@@H](C)NC(=O)[C@@H]3CNCCN3c3ccc(F)cc3)c2=O)cc1 |
| – | 0.028 | 0.47 | 60 | COc1ccc(-n2nc(Sc3ccc(Cl)cc3)cc(CC[C@@H](C)NC[C@H]3CNCC[C@@H]3c3ccc(F)cc3)c2=O)cc1 |
| – | 0.028 | 0.75 | 67 | COc1ccc(-n2nc(Sc3ccc(Cl)cc3)cc(CC[C@@H](C)NC(=O)[C@H]3CNC[C@@H]3c3ccc(C)cc3)c2=O)cc1 |
| – | 0.026 | 0.39 | – | COc1ccc(N2N=C(Sc3ccc(Cl)cc3)CC(CC[C@@H](C)NC(=O)[C@H]3CNCC[C@@H]3c3ccc(F)cc3)C2=O)cc1 (stereo in doubt; 25) [listing 1 of 2 here] |
| – | 0.019 | 0.43 | 67 | COc1ccc([C@H]2CNC[C@@H]2C(=O)N[C@H](C)CCc2cc(Sc3ccc(Cl)cc3)nn(-c3ccc(OC)cc3)c2=O)cc1 |
| 12 | 0.017 | – | – | COc1ccc(-n2nc(Sc3ccc(Cl)cc3)cc(CC[C@@H](C)NC(=O)[C@H]3CNCC[C@@H]3c3ccc4ccccc4c3)c2=O)cc1 |
| – | 0.013 | 0.55 | 58 | COc1ccc(-n2nc(Sc3ccc(Cl)cc3)cc(CC[C@@H](C)NC(=O)[C@H]3CNCC[C@@H]3c3ccccc3F)c2=O)cc1 |
| 47 | 0.0047 | 1.1 | – | COc1ccc(-n2nc(Sc3ccc(Cl)cc3)cc(CC[C@@H](C)NC(=O)[C@H]3CNCC[C@@H]3c3ccc(C)cc3)c2=O)cc1 |
| – | 0.0047 | 0.32 | 59 | COc1ccc(-n2nc(Sc3ccc(Cl)cc3)cc(CC[C@@H](C)NC(=O)[C@H]3CN(C)CC[C@@H]3c3ccc(F)cc3)c2=O)cc1 |
| 24 | 0.0038 | > 5 | – | COc1ccc(-n2nc(Sc3ccc(Cl)cc3)cc(CC[C@@H](C)NC(=O)[C@H]3CNCC[C@@H]3c3ccc(C(F)(F)F)cc3)c2=O)cc1 |
| 2 | 0.0032 | – | – | COc1ccc(-n2nc(Sc3ccc(Cl)cc3)cc(CC[C@@H](C)NC(=O)[C@H]3CNCC[C@@H]3c3ccc(Cl)cc3Cl)c2=O)cc1 |
| – | 0.0024 | 0.21 | 39 | COc1ccc(-n2nc(Sc3ccc(Cl)cc3)cc(CC[C@@H](C)NC(=O)[C@H]3CNCC[C@@H]3c3ccc(Cl)cc3)c2=O)cc1 |
